# What was measured:
# Th17 cells = experiment: Th17 Assay (IL-17 levels in supernatants by ELISA); format: cell-based; details: Homo sapiens; read-out: Th17 activity range @ 1 μM (% inhibition)
# Method: The activity of the compounds was evaluated using a Fluorescence Polarization (FP) Assay and, in most cases, a Th17 Assay and/or RORγ Reporter assay (also referred to as Gal4 assay). The FP assay is an in vitro assay monitoring binding within the ligand binding pocket. The RORγ and the Th17 assays are both cell-based assays monitoring functional activity of the compound assayed.
# Human peripheral blood mononuclear cells (PBMCs) were isolated from buffy coats of healthy human volunteers using the Ficoll paque PLUS kit (GE Healthcare, cat no 17-1440-02), as instructed by the manufacturer. Naive CD4+ T cells were isolated with Naive CD4+ T cell kit, human (Milteny Biotec, cat no 130-094-131). The following modifications were made to the manufacturer's protocol: 1) Incubation with Biotin-Antibody Cocktail and Anti-Biotin MicroBeads was prolonged to 30 minutes, and 2) Cells were washed with 40 mL of Miltenyi buffer. Differentiation of Th17 cells in anti-CD3 (BD Pharmingen, 5 μg/ml) coated 96-well plates (400,000 cells/well, 160 μl RPMI 1640+10% Fetal Bovine Serum) containing 5 μg/ml anti-CD28 (BD Pharmingen), 10 ng/ml IL-2 (R&D Systems), 2.5 ng/ml TGFβ-1 (R&D Systems), 20 ng/ml IL-1β (R&D Systems), 20 ng/ml IL-6 (R&D Systems), 30 ng/ml IL-23 (R&D Systems), 2.5 μg/ml anti-IL-4 (R&D Systems) and 1 μg/ml anti-IFNγ (R&D Systems) and with test compound during the entire differentiation (or vehicle, 0.1% DMSO for control). Test compounds were tested in triplicates, diluted 1000-fold in medium (final DMSO concentration is 0.1%). Incubated for seven days at 37° C., 5% CO2, 95% humidity, and 2-fluoro-4′-[[4-(4-pyridinylmethyl)-1-piperazinyl]methyl]-α,α-bis(trifluoromethyl)-[1,1′-biphenyl]-4-methanol (SR2211 Calbiochem, Cat. No. 557353) was used as positive control. As negative control, cells were differentiated into Th0 using 5 μg/ml anti-CD28 (BD Pharmingen), 10 ng/ml IL-2 (R&D Systems), 2 μg/ml anti-IL4 (R&D Systems) and 2 μg/ml anti-IFNγ (R&D Systems) are negative control. IL-17 levels in supernatants were measured with ELISA (R&D Systems).
# [1] = target: T1, yeast Gal4-DNA binding domain fused to the ligand binding domain of human RORγ (Homo sapiens, UniProt P51449); experiment: RORγ Reporter Assay (Gal4); format: cell-based; details: values given as lower bounds of ranges; for Gal4 activity range @ 1 μM (% inhibition): RORγ Reporter Assay (Gal4) at 1 μM; for Gal4 activity range @ 0.1 μM (% inhibition): RORγ Reporter Assay (Gal4) at 0.1 μM
# T1 construct: host or cells: HEK293t
# T1 sequence (P51449 269-508 limits assumed): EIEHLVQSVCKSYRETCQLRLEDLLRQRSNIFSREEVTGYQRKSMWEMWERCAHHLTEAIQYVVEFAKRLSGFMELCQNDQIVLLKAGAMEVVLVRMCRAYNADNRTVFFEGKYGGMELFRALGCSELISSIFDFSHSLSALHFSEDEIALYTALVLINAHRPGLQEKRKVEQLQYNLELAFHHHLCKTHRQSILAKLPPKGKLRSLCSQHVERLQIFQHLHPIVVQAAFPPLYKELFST
# In short: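 HEK293t reporter cells expressing the hybrid, with Gal4-UAS-driven firefly luciferase, treated in triplicate with compound at 1,000 nM and 100 nM (0.1% DMSO) in medium with 10% charcoal-stripped FBS for 24 h at 37 °C. Luminescence read; percent reduction of RLU calculated relative to vehicle.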
# [2] = target: T2, human RORγt (Ligand Binding Domain) (Homo sapiens, UniProt P51449); experiment: Fluorescence Polarization (FP) Assay; details: Fluorescence Polarization (FP) Assay; values given as upper bounds of activity ranges; read-out: FP activity range
# T2 construct: purchased Crelux (Planegg, Germany) batch no PC5032-1
# T2 sequence (P51449 269-508 limits assumed): T1 sequence (P51449 269-508 limits assumed)
# In short: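 In vitro FP binding assay monitoring ligand binding within the ligand binding pocket. Probe is a TAMRA-labelled RORγt ligand (MW 910 g/mole); DMSO served as negative control.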
# female C57BL/6 mice = experiment: Experimental Autoimmune Encephalomyelitis (EAE) Study; format: in vivo; details: 10 and 30 mg/kg, orally twice daily, 25 days
# male DBA/1J mice = experiment: Collagen-Induced Arthritis (CIA) Study; format: in vivo; details: orally twice daily
# Method: Collagen-induced arthritis is an animal model of rheumatoid arthritis used to evaluate the efficacy of test compounds. CIA was induced at Washington Biotechnology Inc. (Baltimore) in male DBA/1J mice (Jackson Laboratories) by subcutaneous injection at the base of the tail with 50 μl of a bovine collagen/complete Freund's adjuvant emulsion. After 21 days, the mice were further boosted by a further subcutaneous injection of 50 μl of a collagen/incomplete Freund's adjuvant emulsion. For treatment, compound or vehicle (2% DMSO, 10% HP-β-CD in MilliQ water) was given orally twice daily at various doses selected from 3, 10, 30 mg/kg, beginning at the day of CIA induction (Prophylactic setting), or after disease initiation (at day 27, therapeutic setting). Treatment lasted until day 41, and the animals were scored three times weekly. Each paw was scored and the sum of all four scores was recorded as the Arthritic Index (AI). The maximum possible AI was 16.0=no visible effects of arthritis; 1=edema and/or erythema of one digit; 2=edema and/or erythema of 2 joints; 3=edema and/or erythema of more than 2 joints; 4=severe arthritis of the entire paw and digits including limb deformation and ankylosis of the joint. The Arthritis Index for each treatment can be expressed as the mean score for each treatment group+/−S.E.M.
Compound,Gal4 activity range @ 1 μM (% inhibition) [1] [% inhibition],IC50 [2] [nM],Gal4 activity range @ 0.1 μM (% inhibition) [1] [% inhibition],inhibition at 1 µM (Th17 cells) [%],EAE clinical score (female C57BL/6 mice),onset of EAE (female C57BL/6 mice),"CIA disease development, therapeutic setting (male DBA/1J mice; 30 mg/kg, from day 27)","CIA disease severity, prophylactic setting (male DBA/1J mice; 10 and 30 mg/kg, from day of CIA induction)"
"Cc1ccc(CNc2ncnc(N3CCCC3c3ccc(C(F)(F)F)cc3)c2F)cn1 (stereo not shown) [Example 89, 5-fluoro-N-[(6-methyl-3-pyridyl)methyl]-6-[2-[4-(trifluoromethyl)phenyl]pyrrolidin-1-yl]pyrimidin-4-amine]",>80,< 500,>20,> 20,,,,
"O=C(O)Cc1ccc(CNc2ncnc(N3CCOCC3c3ccc(OC(F)(F)F)cc3)c2F)cc1 (stereo not shown) [Example 91, 2-[4-[[[5-fluoro-6-[3-[4-(trifluoromethoxy)phenyl]morpholin-4-yl]pyrimidin-4-yl]amino]methyl]phenyl]acetic acid]",>80,< 500,>20,> 80,,,,

# More lines, main results first:
Gal4 activity range @ 1 μM (% inhibition) [1] [% inhibition],IC50 [2] [nM],Gal4 activity range @ 0.1 μM (% inhibition) [1] [% inhibition],Compound,inhibition at 1 µM (Th17 cells) [%],EAE clinical score (female C57BL/6 mice),onset of EAE (female C57BL/6 mice),"CIA disease development, therapeutic setting (male DBA/1J mice; 30 mg/kg, from day 27)","CIA disease severity, prophylactic setting (male DBA/1J mice; 10 and 30 mg/kg, from day of CIA induction)"
>80,< 500,,"O=C(O)Cc1ccc(Cn2ccc3c(N4CCCC4c4ccc(C(F)(F)F)cc4)ncnc32)cc1 (stereo not shown) [Example 85, 2-[4-[[4-[2-[4-(trifluoromethyl)phenyl]pyrrolidin-1-yl]pyrrolo[2,3-d]pyrimidin-7-yl]methyl]phenyl]acetic acid]",> 80,,,,
>80,< 500,>80,"Fc1c(NCc2ccc(Cn3ccnc3)cc2)ncnc1N1CCCC1c1ccc(C(F)(F)F)cc1 (stereo not shown) [Example 94, 5-fluoro-N-[[4-(imidazol-1-ylmethyl)phenyl]methyl]-6-[2-[4-(trifluoromethyl)phenyl]pyrrolidin-1-yl]pyrimidin-4-amine]",> 80,,,,
>80,< 500,>50,"NC(=O)Cc1ccc(CNc2ncnc(N3CCOC[C@@H]3c3ccc(C(F)(F)F)cc3)c2F)cc1 [Example 204, 2-[4-[[[5-fluoro-6-[(3S)-3-[4-(trifluoromethyl)phenyl]morpholin-4-yl]pyrimidin-4-yl]amino]methyl]phenyl]acetamide]",,lower clinical score,delay onset,arrest disease development,significantly reduce disease severity
